According to PubChem BioAssay (NCI):
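All cell lines were grown in 96-well plates and treated with compound for 48 hours. At the GI50, growth is halved. The concentration for full growth arrest is given as TGI.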

Assays:
Assay in all cases: NCI anticancer screen, dose series, 48 h
A498 renal = system: A498 renal
SNB-19 CNS = system: SNB-19 CNS
TK-10 renal = system: TK-10 renal
UACC-62 melanoma = system: UACC-62 melanoma
K-562 leukemia = system: K-562 leukemia
BT-549 breast = system: BT-549 breast
NCI-H226 lung = system: NCI-H226 lung
SF-295 CNS = system: SF-295 CNS
MDA-MB-468 breast = system: MDA-MB-468 breast
M14 melanoma = system: M14 melanoma
HT29 colon = system: HT29 colon
HS 578T breast = system: HS 578T breast
SK-OV-3 ovarian = system: SK-OV-3 ovarian
HL-60(TB) leukemia = system: HL-60(TB) leukemia
NCI-H460 lung = system: NCI-H460 lung
COLO 205 colon = system: COLO 205 colon
786-0 renal = system: 786-0 renal
HCC-2998 colon = system: HCC-2998 colon
U251 CNS = system: U251 CNS
IGROV1 ovarian = system: IGROV1 ovarian
MALME-3M melanoma = system: MALME-3M melanoma
RPMI-8226 leukemia = system: RPMI-8226 leukemia
CAKI-1 renal = system: CAKI-1 renal
A549 NSCLC = system: A549 NSCLC
HOP-62 NSCLC = system: HOP-62 NSCLC
SF-539 CNS = system: SF-539 CNS
SK-MEL-5 melanoma = system: SK-MEL-5 melanoma
SW-620 colon = system: SW-620 colon
SN12C renal = system: SN12C renal
SK-MEL-28 melanoma = system: SK-MEL-28 melanoma
NCI-H23 lung = system: NCI-H23 lung
SR leukemia = system: SR leukemia
CCRF-CEM leukemia = system: CCRF-CEM leukemia
DU-145 prostate = system: DU-145 prostate
OVCAR-5 ovarian = system: OVCAR-5 ovarian
HOP-92 NSCLC = system: HOP-92 NSCLC
ACHN renal = system: ACHN renal
OVCAR-4 ovarian = system: OVCAR-4 ovarian
MOLT-4 leukemia = system: MOLT-4 leukemia
T-47D breast = system: T-47D breast
OVCAR-3 ovarian = system: OVCAR-3 ovarian
NCI/ADR-RES ovarian = system: NCI/ADR-RES ovarian
OVCAR-8 ovarian = system: OVCAR-8 ovarian
SF-268 CNS = system: SF-268 CNS
NCI-H522 lung = system: NCI-H522 lung
HCT-116 colon = system: HCT-116 colon
MDA-MB-435 = system: MDA-MB-435
KM12 colon = system: KM12 colon
EKVX NSCLC = system: EKVX NSCLC
PC-3 prostate = system: PC-3 prostate
RXF 393 renal = system: RXF 393 renal
HCT-15 colon = system: HCT-15 colon
LOX IMVI melanoma = system: LOX IMVI melanoma
MCF7 breast = system: MCF7 breast
UACC-257 melanoma = system: UACC-257 melanoma

Compound c1n[nH]cc1-c1nc2ccc3[nH]ncc3c2c2c1CC1(CCOCC1)CC2 has a GI50 (A498 renal) of 6.66 µM, a TGI (A498 renal) of 22.4 µM and a GI50 (SNB-19 CNS) of 19.3 µM. For the same compound, the TGI (SNB-19 CNS) was 71.2 µM, the GI50 (TK-10 renal) was 8.2 µM and the TGI (TK-10 renal) was > 100 µM. For the same compound, the GI50 (UACC-62 melanoma) was 4.37 µM, the TGI (UACC-62 melanoma) was 15.8 µM and the GI50 (K-562 leukemia) was 16.9 µM. The TGI (K-562 leukemia) was > 100 µM, the GI50 (BT-549 breast) was 5.05 µM and the TGI (BT-549 breast) was 18.9 µM. It also gave a GI50 (NCI-H226 lung) of 13.9 µM, a TGI (NCI-H226 lung) of 39.2 µM and a GI50 (SF-295 CNS) of 24.9 µM. The TGI (SF-295 CNS) was 71.1 µM, the GI50 (MDA-MB-468 breast) was 10.7 µM and the TGI (MDA-MB-468 breast) was 23.2 µM. For the same compound, the GI50 (M14 melanoma) was 6.24 µM, the TGI (M14 melanoma) was 20.9 µM and the GI50 (HT29 colon) was 12.5 µM. The TGI (HT29 colon) was > 100 µM, the GI50 (HS 578T breast) was 7.74 µM and the TGI (HS 578T breast) was 37.5 µM. It also gave a GI50 (SK-OV-3 ovarian) of 4.09 µM, a TGI (SK-OV-3 ovarian) of 60.2 µM and a GI50 (HL-60(TB) leukemia) of 8.38 µM. The TGI (HL-60(TB) leukemia) was 28.5 µM, the GI50 (NCI-H460 lung) was 10.1 µM and the TGI (NCI-H460 lung) was 26.4 µM. For the same compound, the GI50 (COLO 205 colon) was 5.62 µM, the TGI (COLO 205 colon) was 22.2 µM and the GI50 (786-0 renal) was 14.9 µM. The TGI (786-0 renal) was 43.1 µM, the GI50 (HCC-2998 colon) was 12.1 µM and the TGI (HCC-2998 colon) was 32 µM. For the same compound, the GI50 (U251 CNS) was 11.4 µM, the TGI (U251 CNS) was > 100 µM and the GI50 (IGROV1 ovarian) was 19.8 µM. The TGI (IGROV1 ovarian) was 69.6 µM, the GI50 (MALME-3M melanoma) was 14.1 µM and the TGI (MALME-3M melanoma) was 27.9 µM. For the same compound, the GI50 (RPMI-8226 leukemia) was 11.1 µM, the TGI (RPMI-8226 leukemia) was 42.7 µM and the GI50 (CAKI-1 renal) was 17.3 µM. The TGI (CAKI-1 renal) was 38.5 µM, the GI50 (A549 NSCLC) was 22.8 µM and the TGI (A549 NSCLC) was > 100 µM. It also gave a GI50 (HOP-62 NSCLC) of 15.4 µM, a TGI (HOP-62 NSCLC) of 43.3 µM and a GI50 (SF-539 CNS) of 13.5 µM. It also gave a TGI (SF-539 CNS) of 27.3 µM, a GI50 (SK-MEL-5 melanoma) of 14.8 µM and a TGI (SK-MEL-5 melanoma) of 28.7 µM. The GI50 (SW-620 colon) was 5.05 µM, the TGI (SW-620 colon) was > 100 µM and the GI50 (SN12C renal) was 13.3 µM. For the same compound, the TGI (SN12C renal) was 44.3 µM, the GI50 (SK-MEL-28 melanoma) was 12.1 µM and the TGI (SK-MEL-28 melanoma) was 25.6 µM. For the same compound, the GI50 (NCI-H23 lung) was 13.8 µM, the TGI (NCI-H23 lung) was 28.8 µM and the GI50 (SR leukemia) was 3.33 µM. It also gave a TGI (SR leukemia) of 15.2 µM, a GI50 (CCRF-CEM leukemia) of 22.1 µM and a TGI (CCRF-CEM leukemia) of 80.9 µM. For the same compound, the GI50 (DU-145 prostate) was 17.9 µM, the TGI (DU-145 prostate) was > 100 µM and the GI50 (OVCAR-5 ovarian) was 27.7 µM. The TGI (OVCAR-5 ovarian) was 92.3 µM, the GI50 (HOP-92 NSCLC) was 13.4 µM and the TGI (HOP-92 NSCLC) was 64.1 µM. For the same compound, the GI50 (ACHN renal) was 7.72 µM, the TGI (ACHN renal) was > 100 µM and the GI50 (OVCAR-4 ovarian) was 23.4 µM. The TGI (OVCAR-4 ovarian) was 89.2 µM, the GI50 (MOLT-4 leukemia) was 13.4 µM and the TGI (MOLT-4 leukemia) was 42.7 µM. For the same compound, the GI50 (T-47D breast) was 13 µM, the TGI (T-47D breast) was 55.8 µM and the GI50 (OVCAR-3 ovarian) was 16.8 µM. The TGI (OVCAR-3 ovarian) was 65.3 µM, the GI50 (NCI/ADR-RES ovarian) was 58.3 µM and the TGI (NCI/ADR-RES ovarian) was > 100 µM. The GI50 (OVCAR-8 ovarian) was 13.3 µM, the TGI (OVCAR-8 ovarian) was 32.6 µM and the GI50 (SF-268 CNS) was 16.6 µM. It also gave a TGI (SF-268 CNS) of 41.2 µM, a GI50 (NCI-H522 lung) of 4.84 µM and a TGI (NCI-H522 lung) of 21.2 µM. The GI50 (HCT-116 colon) was 4.62 µM, the TGI (HCT-116 colon) was > 100 µM and the GI50 (MDA-MB-435) was 11.6 µM. For the same compound, the TGI (MDA-MB-435) was 25.4 µM, the GI50 (KM12 colon) was 19.2 µM and the TGI (KM12 colon) was 47.8 µM. It also gave a GI50 (EKVX NSCLC) of 19.2 µM, a TGI (EKVX NSCLC) of 54.4 µM and a GI50 (PC-3 prostate) of 16.7 µM. For the same compound, the TGI (PC-3 prostate) was > 100 µM, the GI50 (RXF 393 renal) was 3.55 µM and the TGI (RXF 393 renal) was 16.1 µM. For the same compound, the GI50 (HCT-15 colon) was 19.8 µM, the TGI (HCT-15 colon) was > 100 µM and the GI50 (LOX IMVI melanoma) was 8.51 µM. The TGI (LOX IMVI melanoma) was 21.5 µM, the GI50 (MCF7 breast) was 13 µM and the TGI (MCF7 breast) was 40.9 µM. For the same compound, the GI50 (UACC-257 melanoma) was 14.7 µM and the TGI (UACC-257 melanoma) was 36.5 µM.
